# Laboratory results from US20240287076A1, “COMPOUNDS FOR TARGETING DEGRADATION OF BRUTON'S TYROSINE KINASE” (BIOGEN MA INC., priority 2021, published 2024).
# Target: T1, BTK (Homo sapiens, UniProt Q06187)
# T1 construct: The GM01501.3 cell line endogenously expresses BTK with a HiBiT fusion tag via CRISPR knock-in at its C-terminal region; endogenous in cells; host or cells: GM01501.3 (GM01501 cells engineered by CRISPR knock-in of HiBiT at the BTK locus)
# Test: BTK degradation assay using the HiBiT Method (Nano-Glo HiBiT Lytic Assay, GM01501.3 cells)
# Format: cell-based
# Conditions: HiBiT Degradation on GM01501.3 BTK @ 6 hours
# Experimental: Selected compounds were tested in a BTK degradation assay using the HiBiT Method. Park Memorial Institute (RPM1) 1640 Medium with phenol red, L-Glutamine, Sodium Pyruvate, and fetal bovine serum (FBS) were purchased from Gibco (Grand Island, NY, USA). Nano-Glo® HiBiT Lytic Assay System was purchased from Promega (Madison, WI, USA). GM01501 cells were obtained from the NIGMS Human Genetic Cell Repository at the Coriell Institute for Medical Research. The GM01501.3 cell line endogenously expresses BTK with a HiBiT fusion tag via CRISPR knock-in at its C-terminal region. It was engineered by electroporation with the Neon Transfection System (Themo Fisher Scientific), according to manufacturer indications. Electroporation conditions: 1 pulse of 1,350 V for 30 ms for 0.5×10_6 cells. Cell culture flasks and 384-well microplates were acquired from VWR (Radnor, PA, USA). BTK degradation was evaluated by quantification of luminescent signal using Nano-Glo® HiBiT Lytic Assay kit. Test compounds were added to the 384-well plate from a top concentration of 10 μM with 11 points, half log titration in duplicates. GM01501.3 cells were added into 384-well plates at a cell density of 10,000 cells per well in a total volume of 30 μl. The plates were kept at 37° C. with 5% CO2 for 6 hours. Negative control wells included cells treated with DMSO only and positive control wells included only growing media, without Nano-Glo® HiBiT Lytic reagent. After a 6-hour incubation, Nano-Glo® HiBiT Lytic Assay reagent was added to the cells following manufacturer indications. Luminescence was acquired on EnVision™ Multilabel Reader (PerkinElmer, Santa Clara, CA, USA). […] “++++” represents a DC50 value of less than 100 nM. “+++” represents a DC50 value of 100 nM-500 nM. “++” represents a DC50 value of 500 nM-1000 nM. “+” represents a DC50 value of greater than 1000 nM.
# T1 sequence (Q06187 whole entry, the tested form may be a part): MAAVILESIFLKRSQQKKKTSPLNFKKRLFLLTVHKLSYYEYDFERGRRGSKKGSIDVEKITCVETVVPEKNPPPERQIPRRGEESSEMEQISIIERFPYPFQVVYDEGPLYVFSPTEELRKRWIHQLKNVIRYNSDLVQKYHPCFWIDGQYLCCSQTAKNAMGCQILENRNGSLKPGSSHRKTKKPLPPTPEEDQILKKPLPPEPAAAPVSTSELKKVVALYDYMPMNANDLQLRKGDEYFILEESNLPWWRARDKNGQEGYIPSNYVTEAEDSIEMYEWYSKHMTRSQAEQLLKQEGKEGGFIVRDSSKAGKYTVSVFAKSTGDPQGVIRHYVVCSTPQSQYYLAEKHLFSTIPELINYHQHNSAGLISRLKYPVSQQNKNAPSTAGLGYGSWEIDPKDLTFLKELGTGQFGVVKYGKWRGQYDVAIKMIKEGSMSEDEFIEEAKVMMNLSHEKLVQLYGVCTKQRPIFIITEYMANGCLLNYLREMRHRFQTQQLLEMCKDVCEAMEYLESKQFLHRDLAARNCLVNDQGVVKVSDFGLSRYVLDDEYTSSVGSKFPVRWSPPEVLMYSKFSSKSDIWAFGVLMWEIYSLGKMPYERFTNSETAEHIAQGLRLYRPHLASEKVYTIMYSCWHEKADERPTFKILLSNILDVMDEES
row,SMILES,DC50 [nM]
1,"CC(C)(C)c1nc(C(=O)NCc2ccc(-c3ncnn4cc(-c5ccc(CN6CCN(c7ccc(C8CCC(=O)NC8=O)cn7)CC6)cc5)cc34)cc2F)no1 (stereo not drawn) [Example 36, 5-tert-butyl-N-[[4-[6-[4-[[4-[5-(2,6-dioxo-3-piperidyl)-2-pyridyl]piperazin-1-yl]methyl]phenyl]pyrrolo[2,1-f][1,2,4]triazin-4-yl]-2-fluoro-phenyl]methyl]-1,2,4-oxadiazole-3-carboxamide]",< 100
2,"CC(C)(C)c1nc(C(=O)NCc2cc(F)c(-c3ncnn4cc(-c5ccc(CN6CCC(c7ccc(NC8CCC(=O)NC8=O)cc7)CC6)cc5)cc34)cc2Cl)no1 (stereo not drawn) [Example 49, 5-tert-butyl-N-[[2-chloro-4-[6-[4-[[4-[4-[(2,6-dioxo-3-piperidyl)amino]phenyl]-1-piperidyl]methyl]phenyl]pyrrolo[2,1-f][1,2,4]triazin-4-yl]-5-fluoro-phenyl]methyl]-1,2,4-oxadiazole-3-carboxamide]",< 100
3,"Cc1cc(-c2ncnn3cc(CCCCN4CCN(c5ccc(C6CCC(=O)NC6=O)cn5)CC4)cc23)ccc1CNC(=O)c1noc(C(C)(C)C)n1 (stereo not drawn) [Example 279, 5-(tert-butyl)-N-(4-(6-(4-(4-(5-(2,6-dioxopiperidin-3-yl)pyridin-2-yl)piperazin-1-yl)butyl)pyrrolo[2,1-f][1,2,4]triazin-4-yl)-2-methylbenzyl)-1,2,4-oxadiazole-3-carboxamide]",< 100
4,"Cc1cc(-c2ncnn3cc(-c4ccc(OCCN5CCC(c6ccc(NC7CCC(=O)NC7=O)cc6)CC5)cc4)cc23)ccc1CNC(=O)c1noc(C(C)(C)C)n1 (stereo not drawn) [Example 105, 5-tert-butyl-N-[[4-[6-[4-[2-[4-[4-[(2,6-dioxo-3-piperidyl)amino]phenyl]-1-piperidyl]ethoxy]phenyl]pyrrolo[2,1-f][1,2,4]triazin-4-yl]-2-methyl-phenyl]methyl]-1,2,4-oxadiazole-3-carboxamide]",< 100
5,"Cc1cc(-c2ccnc3[nH]c(-c4ccc(CN5CCC(c6ccc(NC7CCC(=O)NC7=O)cc6)CC5)cc4)cc23)ccc1CNC(=O)c1noc(C(C)(C)C)n1 (stereo not drawn) [Example 161, 5-tert-butyl-N-[[4-[2-[4-[[4-[4-[(2,6-dioxo-3-piperidyl)amino]phenyl]-1-piperidyl]methyl]phenyl]-1H-pyrrolo[2,3-b]pyridin-4-yl]-2-methyl-phenyl]methyl]-1,2,4-oxadiazole-3-carboxamide]",< 100
6,"Cc1cc(-c2ncnn3cc(-c4ccc(CN5CCOCC(n6cc(NC7CCC(=O)NC7=O)cn6)C5)cc4)cc23)ccc1CNC(=O)c1noc(C(C)(C)C)n1 (stereo not drawn) [Example 203, 5-(tert-butyl)-N-(4-(6-(4-((6-(4-((2,6-dioxopiperidin-3-yl)amino)-1H-pyrazol-1-yl)-1,4-oxazepan-4-yl)methyl)phenyl)pyrrolo[2,1-f][1,2,4]triazin-4-yl)-2-methylbenzyl)-1,2,4-oxadiazole-3-carboxamide]",< 100
7,"Cc1cc(-c2ncnn3cc(-c4ccc(CN5CCC(c6ccc(NC7CCC(=O)NC7=O)cc6)CC5)cc4)cc23)ccc1CNC(=O)c1cc2c(s1)CCCC2 (stereo not drawn) [Example 71, N— [[4-[6-[4-[[4-[4-[(2,6-dioxo-3-piperidyl)amino]phenyl]-1-piperidyl]methyl]phenyl]pyrrolo[2,1-f][1,2,4]triazin-4-yl]-2-methyl-phenyl]methyl]-4,5,6,7-tetrahydrobenzothiophene-2-carboxamide]",< 100
8,"COc1ccc(C(=O)NCc2ccc(-c3ncnn4cc(-c5ccc(CN6CCC(c7ccc(NC8CCC(=O)NC8=O)cc7)CC6)cc5)cc34)cc2C)cc1 (stereo not drawn) [Example 66, N-[[4-[6-[4-[[4-[4-[(2,6-dioxo-3-piperidyl)amino]phenyl]-1-piperidyl]methyl]phenyl]pyrrolo[2,1-f][1,2,4]triazin-4-yl]-2-methyl-phenyl]methyl]-4-methoxy-benzamide]",< 100
9,"Cc1cc(-c2ncnn3cc(CCN4CCC(c5ccc(OC6CCC(=O)NC6=O)cc5F)CC4)cc23)ccc1CNC(=O)c1noc(C(C)(C)C)n1 (stereo not drawn) [Example 254, 5-(tert-butyl)-N-(4-(6-(2-(4-(4-((2,6-dioxopiperidin-3-yl)oxy)-2-fluorophenyl)piperidin-1-yl)ethyl)pyrrolo[2,1-f][1,2,4]triazin-4-yl)-2-methylbenzyl)-1,2,4-oxadiazole-3-carboxamide]",< 100
10,"Cc1cc(-c2ncnn3cc(CCCCN4CCC(c5ccc(NC6CCC(=O)NC6=O)cc5)C(F)(F)C4)cc23)ccc1CNC(=O)c1noc(C(C)(C)C)n1 (stereo not drawn) [Example 132, 5-tert-butyl-N-[[4-[6-[4-[4-[4-[(2,6-dioxo-3-piperidyl)amino]phenyl]-3,3-difluoro-1-piperidyl]butyl]pyrrolo[2,1-f][1,2,4]triazin-4-yl]-2-methyl-phenyl]methyl]-1,2,4-oxadiazole-3-carboxamide]",< 100
11,"Cc1cc(-c2ncnn3cc(-c4ccc(CN5CCC(c6ccc(NC7CCC(=O)NC7=O)cc6)CC5)cc4)cc23)ccc1CNC(=O)c1nc(C(C)(C)C)co1 (stereo not drawn) [Example 80, 4-tert-butyl-N-[[4-[6-[4-[[4-[4-[(2,6-dioxo-3-piperidyl)amino]phenyl]-1-piperidyl]methyl]phenyl]pyrrolo[2,1-f][1,2,4]triazin-4-yl]-2-methyl-phenyl]methyl]oxazole-2-carboxamide]",< 100
12,"CC(C)(C)c1nc(C(=O)NCc2ccc(-c3ncnn4cc(-c5ccc(CN6CC[C@@H](c7ccc(NC8CCC(=O)NC8=O)cc7)CC67CC7)cc5)cc34)cc2F)no1 (stereo partly drawn) [Example 38, 5-tert-butyl-N-[[4-[6-[4-[[(7R)-7-[4-[(2,6-dioxo-3-piperidyl)amino]phenyl]-4-azaspiro[2.5]octan-4-yl]methyl]phenyl]pyrrolo[2,1-f][1,2,4]triazin-4-yl]-2-fluoro-phenyl]methyl]-1,2,4-oxadiazole-3-carboxamide]",< 100
13,"Cc1cc(-c2ncnn3cc(-c4ccc(CN5CCC(c6ccc(NC7CCC(=O)NC7=O)cc6)C(F)(F)C5)cc4)cc23)ccc1CNC(=O)c1noc(C(C)(C)C)n1 (stereo not drawn) [Example 240, 5-(tert-butyl)-N-(4-(6-(4-((4-(4-((2,6-dioxopiperidin-3-yl)amino)phenyl)-3,3-difluoropiperidin-1-yl)methyl)phenyl)pyrrolo[2,1-f] [1,2,4]triazin-4-yl)-2-methylbenzyl)-1,2,4-oxadiazole-3-carboxamide]",< 100
14,"Cc1cc(-c2ncnn3cc(N4CCN(CCCCc5ccc6c(N7CCC(=O)NC7=O)nn(C)c6c5)CC4)cc23)ccc1CNC(=O)c1noc(C(C)(C)C)n1 [Example 297, 5-(tert-butyl)-N-(4-(6-(4-(4-(3-(2,4-dioxotetrahydropyrimidin-1(2H)-yl)-1-methyl-1H-indazol-6-yl)butyl)piperazin-1-yl)pyrrolo[2,1-f][1,2,4]triazin-4-yl)-2-methylbenzyl)-1,2,4-oxadiazole-3-carboxamide]",< 100
15,"Cc1cc(-c2ncnn3cc(-c4ccc(CN5CCC(c6ccc(NC7CCC(=O)NC7=O)cc6)CC5)cc4)cc23)ccc1CNC(=O)c1ccc(F)cc1 (stereo not drawn) [Example 64, N-[[4-[6-[4-[[4-[4-[(2,6-dioxo-3-piperidyl)amino]phenyl]-1-piperidyl]methyl]phenyl]pyrrolo[2,1-f][1,2,4]triazin-4-yl]-2-methyl-phenyl]methyl]-4-fluoro-benzamide]",< 100
16,"Cc1cc(-c2ncnn3cc(-c4ccc(CN5CCC(c6ccc(NC7CCC(=O)NC7=O)cc6)CC5)cc4)cc23)ccc1CNC(=O)c1noc(C(C)(C)C)n1 (single isomer, unassigned; isomer 1) [Example 2, 5-tert-butyl-N-[[4-[6-[4-[[4-[4-[(2,6-dioxo-3-piperidyl)amino]phenyl]-1-piperidyl]methyl]phenyl]pyrrolo[2,1-f][1,2,4]triazin-4-yl]-2-methyl-phenyl]methyl]-1,2,4-oxadiazole-3-carboxamide isomer 1]",< 100
17,"Cc1cc(-c2ncnn3cc(-c4ccc(-c5n[nH]cc5CN5CCC(c6ccc(C7CCC(=O)NC7=O)cc6)CC5)s4)cc23)ccc1CNC(=O)c1noc(C(C)(C)C)n1 (stereo not drawn) [Example 220, 5-(tert-butyl)-N-(4-(6-(5-(4-((4-(4-(2,6-dioxopiperidin-3-yl)phenyl)piperidin-1-yl)methyl)-1H-pyrazol-3-yl)thiophen-2-yl)pyrrolo [2,1-f][1,2,4]triazin-4-yl)-2-methylbenzyl)-1,2,4-oxadiazole-3-carboxamide]",< 100
18,"Cc1cc(-c2ncnn3cc(CCN4CCC(c5ncc(NC6CCC(=O)NC6=O)cc5F)CC4)cc23)ccc1CNC(=O)c1noc(C(C)(C)C)n1 (stereo not drawn) [Example 251, 5-(tert-butyl)-N-(4-(6-(2-(4-(5-((2,6-dioxopiperidin-3-yl)amino)-3-fluoropyridin-2-yl)piperidin-1-yl)ethyl)pyrrolo[2,1-f][1,2,4]triazin-4-yl)-2-methylbenzyl)-1,2,4-oxadiazole-3-carboxamide]",< 100
